Test results: ChEMBL document CHEMBL1201862, “PubChem BioAssay data set” (2004)
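Test compounds were applied to cells in 96-well plates for 48 hours at 5 doses. The concentration for 50% growth inhibition is given as GI50.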 The source made the active and inactive calls. No stated cut-off is given here; in the data, active = GI50 up to about 1.1 µM and inactive = higher.

How the values were obtained:
Experiment in all cases: NCI tumour cell line growth inhibition, 48 h
786-0 = system: 786-0
A498 = system: A498
A549 = system: A549
HOP-62 = system: HOP-62
HT-29 = system: HT-29
M14 = system: M14
MCF7 = system: MCF7
MDA-MB-435 = system: MDA-MB-435
NCI-H226 = system: NCI-H226
NCI-H23 = system: NCI-H23
NCI/ADR-RES = system: NCI/ADR-RES
SF-268 = system: SF-268
SF-539 = system: SF-539
SNB-75 = system: SNB-75
BT-549 = system: BT-549
NCI-H460 = system: NCI-H460
CAKI-1 = system: CAKI-1
HL-60 = system: HL-60

Compound	GI50 (786-0)	GI50 (A498)	GI50 (A549)	GI50 (HOP-62)	GI50 (HT-29)	GI50 (M14)	GI50 (MCF7)	GI50 (MDA-MB-435)	GI50 (NCI-H226)	GI50 (NCI-H23)	GI50 (NCI/ADR-RES)	GI50 (SF-268)	GI50 (SF-539)	GI50 (SNB-75)	GI50 (BT-549)	GI50 (NCI-H460)	GI50 (CAKI-1)	GI50 (HL-60)
COc1cc2oc(=O)cc(C)c2cc1OC	> 100 µM (inactive)	40.2 µM (inactive)	> 100 µM (inactive)	> 100 µM (inactive)	> 100 µM (inactive)	> 100 µM (inactive)	> 100 µM (inactive)	> 100 µM (inactive)	> 100 µM (inactive)	> 100 µM (inactive)	> 100 µM (inactive)	> 100 µM (inactive)	> 100 µM (inactive)	> 100 µM (inactive)				
CC(=O)ON(C(C)=O)c1ccc(-c2nc3ccccc3s2)cc1	30.2 µM (inactive)	0.315 µM (active)	26.3 µM (inactive)	22 µM (inactive)	24 µM (inactive)	26.4 µM (inactive)		26.9 µM (inactive)	0.276 µM (active)	26 µM (inactive)	16.3 µM (inactive)	24.7 µM (inactive)	15.3 µM (inactive)	24.5 µM (inactive)	37.6 µM (inactive)	28.4 µM (inactive)		
CCC1(CC)SCc2nc3ccccc3n21	66.4 µM (inactive)	40.1 µM (inactive)	35.9 µM (inactive)	37.1 µM (inactive)	32.3 µM (inactive)	26.5 µM (inactive)	30.2 µM (inactive)	26 µM (inactive)	33.4 µM (inactive)	27.7 µM (inactive)	25.6 µM (inactive)	52 µM (inactive)	54.3 µM (inactive)	12.6 µM (inactive)		36.9 µM (inactive)	35.2 µM (inactive)	26 µM (inactive)
CCOC(=O)c1c(C)n(Cc2ccccc2)c(=O)c2ccccc2c(=O)c2c(=O)ccc(=O)c1=2	27 µM (inactive)	> 100 µM (inactive)	> 100 µM (inactive)	> 100 µM (inactive)	42.8 µM (inactive)	39.1 µM (inactive)		> 100 µM (inactive)	> 100 µM (inactive)	62.8 µM (inactive)	92.7 µM (inactive)	57.7 µM (inactive)	48.2 µM (inactive)	> 100 µM (inactive)		> 100 µM (inactive)	34.7 µM (inactive)	> 100 µM (inactive)
CO[C@@H]1C[C@H]2[C@@H]3CC[C@H]([C@H](C)COC(C)=O)[C@@]3(C)CC[C@@H]2[C@@]2(C)CC[C@H]3C[C@]312	> 100 µM (inactive)	> 100 µM (inactive)	> 100 µM (inactive)	> 100 µM (inactive)	> 100 µM (inactive)	> 100 µM (inactive)	81.3 µM (inactive)	> 100 µM (inactive)	> 100 µM (inactive)	> 100 µM (inactive)	> 100 µM (inactive)	> 100 µM (inactive)	> 100 µM (inactive)	> 100 µM (inactive)		> 100 µM (inactive)	> 100 µM (inactive)	> 100 µM (inactive)
Nc1ccccc1C(=O)NNC(=O)c1ccccc1N	> 100 µM (inactive)	> 100 µM (inactive)	> 100 µM (inactive)	> 100 µM (inactive)	> 100 µM (inactive)	> 100 µM (inactive)	> 100 µM (inactive)	> 100 µM (inactive)	> 100 µM (inactive)	> 100 µM (inactive)	> 100 µM (inactive)		> 100 µM (inactive)	35.5 µM (inactive)			> 100 µM (inactive)	> 100 µM (inactive)
CCc1cccc(C(C)C)c1NC1=C([n+]2ccc(C)cc2)C(=O)c2ccccc2C1=O.[O-][Cl+3]([O-])([O-])[O-]	0.481 µM (active)	2.75 µM (inactive)	2.37 µM (inactive)	0.804 µM (active)	1.82 µM (inactive)	0.944 µM (active)	0.27 µM (active)	1.7 µM (inactive)	1.39 µM (inactive)	1.93 µM (inactive)	4.92 µM (inactive)	0.359 µM (active)	0.895 µM (active)	1.75 µM (inactive)		0.564 µM (active)	1.13 µM (inactive)	1.18 µM (inactive)
